Results published in patent US12239635B2, “Treatment of cognitive disorders using nitazoxanide (NTZ), nitazoxanide (NTZ) analogs, and metabolites thereof” (The Trustees of Columbia University in the City of New York, priority 2018, dated 2025).

Assays:
[1] = in vivo; conditions: ICR, mouse, po; for AUC(0-inf): AUC0-∞; for AUC(0-t): AUClast
Experimental: (§1) wherein Cmax indicates maximum plasma concentration observed, Tmax indicates time to Cmax, AUClast indicates the Area Under the Curve from zero to the last time point, AUC0-∞ indicates the total area under the plasma concentration time curve from zero to infinity, and T1/2 indicates terminal elimination half-life. […] Brain/Plasma ratio was calculated using the formula: (Brain AUClast)/(Plasma AUClast).

[2] = literature (Stockis et al. and others); cited from earlier work
[3] = in vivo; conditions: Sprague Dawley, rat, po; for AUC(0-inf): AUC0-∞; for AUC(0-t): AUClast
Experimental: A pharmacokinetic experiment was performed to determine Tizoxanide (TIZ, active metabolite of Nitazoxanide, NTZ) in rat brain and plasma following oral administration to Sprague Dawley (SD) rat.
An Nitazoxanide (NTZ) pill (Alinia) solution was prepared at a concentration of 14.5 mg/mL (10.0 mg/mL as Nitazoxanide (NTZ) for oral administration (per os, PO), ad libitum, in a mixture of 0.5% methyl cellulose and 99.5% saline. The PO dosing volume was 10 mL/kg. SD rats (n=3 per time point; weighing 0.161 to 0.171 kg) were fasted and oral administration was given using a gavage needle. Blood samples were collected from jugular vein and brain tissues were sampled at 0.33, 1 and 4 hrs after oral administration. Blood samples were centrifuged immediately and a 100 ul aliquot of plasma, and the brain tissues were stored −20° C. until the analysis. The concentration of Nitazoxanide (NTZ) and Tizoxanide (TIZ) in plasma and brain were determined by HPLC/MS/MS analysis. An Agilent 1200 HPLC with Zorbax C18 column and an API4000 tandem quadrupole mass spectrometer were used. The molecular ions of Nitazoxanide (NTZ), Tizoxanide (TIZ) and an internal standard (Chlorzoxazone) were fragmented and detected by monitoring the transitions for each compound. Peak areas were integrated using Analyst software version 1.5.1. (Applied Biosystems). The quantifiable range was from 0.001 to 3 μg/ml for plasma and brain samples. Plasma or brain concentration-time profile for each rat was analyzed (WinNonlin 4.1 program) to obtain pharmacokinetic profile parameters.
as §1

[4] = active metabolite following oral administration of Nitazoxanide; cited from earlier work

CC(=O)Oc1ccccc1C(=O)Nc1ncc([N+](=O)[O-])s1 [Nitazoxanide (NTZ), [2-[(5-nitro-1,3-thiazol-2-yl)carbamoyl]phenyl]ethanoate]
Brain/plasma ratio [1]: 0.015 | Pharmacokinetic profile in humans [2]: excellent pharmacokinetic profiles | Tolerability in humans [2]: well-tolerated | Brain/plasma ratio [3]: 0.008

O=C(Nc1ncc([N+](=O)[O-])s1)c1ccccc1O [Tizoxanide (TIZ), Tizoxanide]
Brain/plasma ratio [1]: 0.015 | Cmax, plasma [1]: 288.50 ± 227.73 ng/mL | Tmax, brain [1]: 1.55 ± 2.12 h | AUC(0-inf) ([1]; brain): 9.06 ng·h/mL | AUC(0-inf) ([1]; plasma): 1000 ng·h/mL | AUC(0-t) ([1]; brain): 7.18 ± 5.62 ng·h/mL | AUC(0-t) ([1]; plasma): 485 ± 163 ng·h/mL | Cmax ([1]; Cmax, plasma): 228 ng/mL | half-life ([1]; T1/2, brain): 1.15 h | half-life ([1]; T1/2, plasma): 3.8 h | Tmax ([1]; brain): 1.78 h | Tmax ([1]; plasma): 0.67 h | Protein bound [4]: 99% | Pharmacokinetic profile in humans [2]: excellent pharmacokinetic profiles | Tolerability in humans [2]: well-tolerated | Brain/plasma ratio [3]: 0.008 | Tmax, brain [3]: 0.53 ± 0.39 h | AUC(0-inf) ([3]; brain): 62.8 ng·h/mL | AUC(0-inf) ([3]; plasma): 5420 ng·h/mL | AUC(0-t) ([3]; brain): 17.9 ± 14.6 ng·h/mL | AUC(0-t) ([3]; plasma): 2320 ± 603 ng·h/mL | half-life ([3]; T1/2, brain): 2.85 h | half-life ([3]; T1/2, plasma): 3.86 h | Tmax ([3]; brain): 0.55 h | Tmax ([3]; plasma): 0.39 h

O=C(Nc1ncc([N+](=O)[O-])s1)c1ccccc1O[C@@H]1O[C@H](C(=O)O)[C@@H](O)[C@H](O)[C@H]1O [Tizoxanide glucuronide (TIZ-G), Tizoxanide glucuronide]
Pharmacokinetic profile in humans [2]: excellent pharmacokinetic profiles | Tolerability in humans [2]: well-tolerated
